Experimental data: ChEMBL document CHEMBL6153083, “Synthesis, Structural Modification, and Antismall Cell Lung Cancer Activity of 3-Arylisoquinolines with Dual Inhibitory Activity on Topoisomerase I and II” (J Med Chem, 2025)
The source made the active and inactive calls. The rule behind the calls is not given here.

Tests used:
[1] = Toxicity in BALB/c nude mouse xenografted with human NCI-H446 cells assessed as deleterious effect in heart at 10 to 20 mg/kg, ip for 21 days by H and E staining based analysis; type: organism-based; settings: in vivo, 504 h, dose 10-20 mg/kg, time 21 day
[2] = test system: NCI-H446; test: Induction of apoptosis in human NCI-H446 cells assessed as increase in cleaved caspase-3 level incubated for 48 hrs by Western blot analysis; type: functional, cell-based; settings: dose 1-8 µM
[3] = test system: NCI-H446; test: Inhibition of cell proliferation in human NCI-H446 cells incubated for 24 hrs by EdU incorporation assay; type: functional, cell-based; settings: dose 0.375-3 µM
[4] = Inhibition of PI3K/AKT/mTOR signalling pathway in human NCI-H1048 cells assessed as decrease in mTOR level at 1.75 to 14 uM incubated for 48 hrs by Western blot analysis; type: cell-based; settings: dose 1.75-14 µM
[5] = Half life in Sprague-Dawley rat at 10 mg/kg, ip measured after 24 hrs by LC-MS/MS analysis; type: ADME, organism-based; settings: in vivo
[6] = Antiproliferative activity against human L02 cells incubated for 72 hrs; type: toxicity, cell-based
[7] = test system: NCI-H446; test: Induction of apoptosis in human NCI-H446 cells assessed as increase in Bax level incubated for 48 hrs by Western blot analysis; type: functional, cell-based; settings: dose 1-8 µM
[8] = test system: NCI-H1048; test: Induction of mitochondrial membrane permeability in human NCI-H1048 cells assessed as increase in cytochrome C release at 1.75 to 14 uM incubated for 48 hrs by Western blot analysis; type: functional, cell-based; settings: dose 1.75-14 µM
[9] = target: T1, DNA topoisomerase 1 (Homo sapiens) (UniProt P11387); test: Inhibition of Topo I (unknown origin) relaxation activity using pBR322 plasmid DNA as substrate at 25 to 100 uM incubated for 30 mins; settings: dose 25-100 µM
T1 sequence (whole entry): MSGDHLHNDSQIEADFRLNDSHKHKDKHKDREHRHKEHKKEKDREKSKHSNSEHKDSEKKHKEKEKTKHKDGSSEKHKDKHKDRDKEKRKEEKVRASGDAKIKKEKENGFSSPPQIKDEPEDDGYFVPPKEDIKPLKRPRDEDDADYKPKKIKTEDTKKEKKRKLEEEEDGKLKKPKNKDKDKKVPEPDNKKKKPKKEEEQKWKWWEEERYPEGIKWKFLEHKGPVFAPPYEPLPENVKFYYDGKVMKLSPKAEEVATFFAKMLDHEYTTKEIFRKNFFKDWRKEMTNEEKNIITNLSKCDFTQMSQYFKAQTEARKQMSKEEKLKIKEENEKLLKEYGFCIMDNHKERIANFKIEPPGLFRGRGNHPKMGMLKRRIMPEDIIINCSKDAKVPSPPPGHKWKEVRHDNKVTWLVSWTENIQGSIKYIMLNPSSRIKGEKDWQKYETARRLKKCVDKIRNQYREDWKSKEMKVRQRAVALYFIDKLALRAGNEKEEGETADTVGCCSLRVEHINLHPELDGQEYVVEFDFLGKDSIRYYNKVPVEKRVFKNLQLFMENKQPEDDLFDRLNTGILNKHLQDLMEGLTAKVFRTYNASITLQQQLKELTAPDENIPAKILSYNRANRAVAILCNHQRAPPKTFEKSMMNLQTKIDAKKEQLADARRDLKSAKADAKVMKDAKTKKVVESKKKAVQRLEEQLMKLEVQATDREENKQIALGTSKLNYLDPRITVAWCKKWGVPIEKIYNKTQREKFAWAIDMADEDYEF

[10] = test system: NCI-H446; test: Antitumor activity against human NCI-H446 cells xenografted in BALB/c nude mouse at 20 mg/kg, ip for 21 days relative to control; type: functional; settings: NCI-H446, 504 h, time 21 day, read-out: TGI
[11] = test system: NCI-H1048; test: Induction of cell cycle arrest in human NCI-H1048 cells assessed as accumulation at S phase incubated for 48 hrs by PI staining based flow cytometry; type: functional
[12] = test system: NCI-H446; test: Inhibition of cell migration in human NCI-H446 cells incubated for 24 hrs by wound-healing assay; type: functional, cell-based; settings: dose 0.375-3 µM
[13] = test system: NCI-H446; test: Induction of apoptosis in human NCI-H446 cells assessed as formation of cellular fragments at 1 to 8 uM incubated for 48 hrs by Annexin V-FITC/PI staining based flow cytometry; type: functional, cell-based; settings: dose 1-8 µM
[14] = test system: NCI-H1048; test: Inhibition of cell invasion in human NCI-H1048 cells incubated for 24 hrs by transwell assay; type: functional, cell-based
[15] = Inhibition of PI3K/AKT/mTOR signalling pathway in human NCI-H1048 cells assessed as decrease in PI3K phosphorylation at 1.75 to 14 uM incubated for 48 hrs by Western blot analysis; type: cell-based; settings: dose 1.75-14 µM
[16] = test system: NCI-H1048; test: Induction of mitochondrial dysfunction in human NCI-H1048 cells assessed as increase in ROS level at 1.75 to 14 uM incubated for 48 hrs by DCFH-DA staining based flow cytometry; type: functional, cell-based; settings: dose 1.75-14 µM
[17] = Antiproliferative activity against human BEAS-2B cells incubated for 72 hrs; type: toxicity, cell-based
[18] = Cmax in Sprague-Dawley rat at 10 mg/kg, ip measured after 24 hrs by LC-MS/MS analysis; type: ADME, organism-based; settings: in vivo
[19] = test system: NCI-H1048; test: Induction of apoptosis in human NCI-H1048 cells at 1.75 to 14 uM incubated for 48 hrs by Annexin V-FITC/PI staining based flow cytometry; type: functional, cell-based; settings: dose 1.75-14 µM
[20] = test system: NCI-H1048; test: Inhibition of cell proliferation in human NCI-H1048 cells incubated for 24 hrs by EdU incorporation assay; type: functional, cell-based; settings: dose 0.375-3 µM
[21] = test system: NCI-H446; test: Induction of apoptosis in human NCI-H446 cells assessed as decrease in Bcl-2 level incubated for 48 hrs by Western blot analysis; type: functional, cell-based; settings: dose 1-8 µM
[22] = Acute toxicity in Kunming mouse assessed as animal death at 400 mg/kg, ip; type: organism-based; settings: in vivo
[23] = test system: NCI-H1048; test: Induction of apoptosis in human NCI-H1048 cells assessed as increase in Bax level incubated for 48 hrs by Western blot analysis; type: functional, cell-based
[24] = test system: NCI-H1048; test: Induction of mitochondrial dysfunction in human NCI-H1048 cells assessed as increase in ROS level at 1 to 8 uM incubated for 48 hrs by DCFH-DA staining based flow cytometry; type: functional, cell-based; settings: dose 1-8 µM
[25] = Inhibition of PI3K/AKT/mTOR signalling pathway in human NCI-H1048 cells assessed as decrease in mTOR level at 1 to 8 uM incubated for 48 hrs by Western blot analysis; type: cell-based; settings: dose 1-8 µM
[26] = test system: NCI-H1048; test: Induction of mitochondrial membrane permeability in human NCI-H1048 cells assessed as increase in cytochrome C release at 1 to 8 uM incubated for 48 hrs by Western blot analysis; type: functional, cell-based; settings: dose 1-8 µM
[27] = Inhibition of PI3K/AKT/mTOR signalling pathway in human NCI-H1048 cells assessed as decrease in AKT level at 1 to 8 uM incubated for 48 hrs by Western blot analysis; type: cell-based; settings: dose 1-8 µM
[28] = Inhibition of PI3K/AKT/mTOR signalling pathway in human NCI-H1048 cells assessed as decrease in PI3K phosphorylation at 1 to 8 uM incubated for 48 hrs by Western blot analysis; type: cell-based; settings: dose 1-8 µM
[29] = test system: NCI-H1048; test: Induction of early apoptosis in human NCI-H1048 cells incubated for 48 hrs by Annexin V-FITC/PI staining based flow cytometry; type: functional, cell-based; settings: dose 1-8 µM
[30] = test system: NCI-H446; test: Induction of early apoptosis in human NCI-H446 cells incubated for 48 hrs by Annexin V-FITC/PI staining based flow cytometry; type: functional, cell-based; settings: dose 1-8 µM

Row | SMILES | Activity [1] | Activity [2] | inhibition [3] | half-life [5] | IC50 at 72 h [6] | Activity [7] | inhibition [9] | inhibition in vivo at 20 mg/kg [10] | Activity [11] | inhibition [12] | inhibition [14] | IC50 at 72 h [17] | Cmax [18] | inhibition [20] | Activity [21] | Activity [22] | Activity [23] | also measured
1 | CCC1CCCC(C)N1Cc1cc2c(cc1-c1cc3ccc4c(c3cn1)OCO4)OCO2 (configuration not stated) | Non-toxic | Dose-dependent-effect | Dose-dependent-effect; Exhibited Similar Inhibitory Effect To That Of Etoposide At Same Concentration | 4.86 h | 26.1 µM | Dose-dependent-effect | Active | 85.5% | Dose-dependent-effect | Dose-dependent-effect | Dose-dependent-effect | > 100 µM | 228 ng/mL | Dose-dependent-effect; Compound Effect Surpassed Etoposide Effect | Dose-dependent-effect | Toxic | Dose-dependent-effect | inhibition [4]: Active; Activity [8]: Active; Activity [13]: Active; Activity Similar To Etoposide; inhibition [15]: Active; Activity [16]: Active; Activity [19]: Active; Less Effective Than Etoposide
2 | CC1CC(C)CN(Cc2cc3c(cc2-c2cc4ccc5c(c4cn2)OCO5)OCO3)C1 (configuration not stated) | Non-toxic | Dose-dependent-effect | Dose-dependent-effect; Exhibited Similar Inhibitory Effect To That Of Etoposide At Same Concentration | 3.38 h | 29.1 µM | Dose-dependent-effect | Active | 82.2% | Dose-dependent-effect | Dose-dependent-effect; Exhibited Superior Inhibitory Effect Compared To Etoposide At Same Concentration | Dose-dependent-effect; Displayed Stronger Inhibitory Effect Than Etoposide | 27.5 µM | 145 ng/mL | Dose-dependent-effect; Compound Effect Surpassed Etoposide Effect | Dose-dependent-effect | Toxic | Dose-dependent-effect | Activity [24]: Active; inhibition [25]: Active; Activity [26]: Active; inhibition [27]: Active; inhibition [28]: Active; Pronounced Effect Was Observed In Human Nci-H1048 Cells Than In Human Nci-H446 Cells; Activity [29]: Dose-dependent-effect; Exhibited Stronger Effect Than Etoposide; Activity [30]: Dose-dependent-effect; Exhibited Stronger Effect Than Etoposide
